From article PMC9737349, “Discovery of 5-Methylthiazole-Thiazolidinone Conjugates as Potential Anti-Inflammatory Agents: Molecular Target Identification and In Silico Studies” (Molecules, 2022)
Each block holds one compound with its values, some of them ahead of it.

Columns and labels:
[1] = tested on: carrageenan-induced mouse paw edema; assay: Carrageenan-induced mouse paw oedema; assay type: in vivo; conditions: mice, i.p. 0.15 mmol/kg 5 min before carrageenan, paw weight increase after 3.5 h; for inhibition in vivo at 150 µmol/kg: Mus musculus, ip
Description: For the study of possible anti-inflammatory action, the swelling caused in the sole of the right hind limb by intradermal administration of carrageenan was used as a model of inflammation. Carrageenan-induced edema is a non-specific inflammation that results from a number of different transmitters and resembles human acute inflammation.
The animals were weighed and divided into control, standard and test groups. Each group contained 10 mice. […] An aqueous solution of carrageenan 0.1 mL, 1% w/v) was injected subcutaneously to the sub-plantar region of the right hind paw, with the left paw as control. The tested compounds (suspended in water with a few drops of Tween 80) were given i.p. (0.15 mmol/kg) 5 min before the carrageenan administration. After 3.5 h, the hind paws were excised and were weighed separately. The produced oedema was estimated as a paw weight increase.

[2] = biological target: T1, ovine COX-1 (Ovis aries, UniProt P05979); assay: Inhibition of COX-1 activity (Cayman COX Inhibitor Screening Assay kit); assay type: biochemical
T1 construct: purchased Cayman Chemical Co., Ann Arbor, MI
T1 sequence (P05979 25-600): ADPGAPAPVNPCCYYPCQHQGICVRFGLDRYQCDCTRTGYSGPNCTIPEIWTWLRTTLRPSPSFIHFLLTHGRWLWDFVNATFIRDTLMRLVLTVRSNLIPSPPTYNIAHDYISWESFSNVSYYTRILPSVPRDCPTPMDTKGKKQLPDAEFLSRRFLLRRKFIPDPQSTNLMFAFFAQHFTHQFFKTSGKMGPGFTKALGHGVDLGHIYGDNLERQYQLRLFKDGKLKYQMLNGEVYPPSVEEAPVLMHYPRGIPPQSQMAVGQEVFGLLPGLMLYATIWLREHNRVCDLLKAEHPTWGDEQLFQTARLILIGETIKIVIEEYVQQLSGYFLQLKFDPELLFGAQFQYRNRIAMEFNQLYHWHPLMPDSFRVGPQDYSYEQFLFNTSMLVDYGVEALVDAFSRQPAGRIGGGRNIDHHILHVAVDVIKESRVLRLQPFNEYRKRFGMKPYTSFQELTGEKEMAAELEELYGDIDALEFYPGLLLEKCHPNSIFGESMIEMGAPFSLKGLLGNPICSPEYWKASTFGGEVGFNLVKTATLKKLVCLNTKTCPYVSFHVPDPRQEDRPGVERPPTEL
Description: (§1) The effect of compounds on COX-1 and COX-2 inhibition was measured using a commercial kit provided by Cayman (Cayman Chemical Co., Ann Arbor, MI), applying the instructions of the manufacturer. The kit uses ovine COX-1 and human recombinant COX-2 enzymes. […] The assay measures PGF2a produced by SnCl2 reduction of COX-derived PGH2.

[3] = biological target: T2, soybean LOX (Glycine max, UniProt P08170); assay: Inhibition of LOX activity; assay type: biochemical
T2 construct: purchased Sigma (St. Louis, MO, USA)
T2 sequence (P08170 1-839): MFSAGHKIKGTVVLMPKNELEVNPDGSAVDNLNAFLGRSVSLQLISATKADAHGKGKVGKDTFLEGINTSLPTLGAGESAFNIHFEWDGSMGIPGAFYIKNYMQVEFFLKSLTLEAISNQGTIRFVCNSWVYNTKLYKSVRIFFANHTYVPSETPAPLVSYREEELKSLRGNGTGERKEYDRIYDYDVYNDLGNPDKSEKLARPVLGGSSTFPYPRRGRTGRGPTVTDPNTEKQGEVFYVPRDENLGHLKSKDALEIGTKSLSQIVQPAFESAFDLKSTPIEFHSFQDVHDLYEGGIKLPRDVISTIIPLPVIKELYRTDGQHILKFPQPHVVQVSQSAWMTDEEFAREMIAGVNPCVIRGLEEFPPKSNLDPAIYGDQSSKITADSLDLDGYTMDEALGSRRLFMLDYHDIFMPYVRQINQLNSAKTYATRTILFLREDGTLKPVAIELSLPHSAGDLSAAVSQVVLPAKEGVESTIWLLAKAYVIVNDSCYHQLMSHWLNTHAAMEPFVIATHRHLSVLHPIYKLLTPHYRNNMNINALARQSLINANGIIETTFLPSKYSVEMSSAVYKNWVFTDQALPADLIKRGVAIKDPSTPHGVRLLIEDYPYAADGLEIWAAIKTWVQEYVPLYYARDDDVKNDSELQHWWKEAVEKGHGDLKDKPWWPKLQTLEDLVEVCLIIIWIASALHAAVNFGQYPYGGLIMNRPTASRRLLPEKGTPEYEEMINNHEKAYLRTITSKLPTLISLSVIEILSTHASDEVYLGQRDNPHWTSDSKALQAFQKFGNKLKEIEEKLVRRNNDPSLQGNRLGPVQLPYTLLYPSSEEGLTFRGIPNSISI
Description: The reaction mixture contained (final concentration 300 μM) the test compounds, dissolved in absolute ethanol (10–300 μM), or the solvent (control), soybean LOX, dissolved in 0.9% NaCl solution (250 u/mL) and sodium linoleate (100 μM), in Tris-HCl buffer, pH 9.0. The reaction was followed for 7 min at 28 °C, recording the absorbance (234 nm) of a conjugated diene structure, due to the formation of 13-hydroperoxy-linoleic acid. […] For the estimation of the type of inhibition, the above experiments were repeated, using 1 mM sodium linoleate, which is higher than the saturating substrate concentration.

[4] = biological target: T3, human recombinant COX-2 (Homo sapiens, UniProt P35354); assay: Inhibition of COX-2 activity (Cayman COX Inhibitor Screening Assay kit); assay type: biochemical; conditions: read-out: Inhibition, COX-2, Inhibition (%) 200 μM
T3 construct: purchased Cayman Chemical Co., Ann Arbor, MI
T3 sequence (P35354 18-604): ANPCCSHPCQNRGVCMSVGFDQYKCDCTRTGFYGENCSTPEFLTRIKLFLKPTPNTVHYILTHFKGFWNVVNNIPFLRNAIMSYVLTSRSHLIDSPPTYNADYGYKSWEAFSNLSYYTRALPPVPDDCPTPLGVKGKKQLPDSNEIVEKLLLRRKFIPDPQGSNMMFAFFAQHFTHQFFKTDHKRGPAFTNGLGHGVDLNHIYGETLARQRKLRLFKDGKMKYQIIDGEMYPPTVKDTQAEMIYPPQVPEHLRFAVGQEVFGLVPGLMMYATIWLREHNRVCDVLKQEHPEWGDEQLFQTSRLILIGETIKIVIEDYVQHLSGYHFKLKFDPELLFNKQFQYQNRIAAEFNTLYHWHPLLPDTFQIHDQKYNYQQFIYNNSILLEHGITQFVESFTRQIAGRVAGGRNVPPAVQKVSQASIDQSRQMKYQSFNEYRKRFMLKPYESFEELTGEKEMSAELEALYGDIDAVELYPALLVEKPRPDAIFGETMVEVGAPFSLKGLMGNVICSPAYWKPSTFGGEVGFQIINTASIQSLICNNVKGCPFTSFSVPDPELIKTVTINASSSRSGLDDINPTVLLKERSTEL
Description: as §1

Structure (SMILES): Cc1cnc(N=C2NC(=O)C(=Cc3ccccc3)S2)s1 [Compound 1]
inhibition in vivo at 150 µmol/kg [1]: 51.6 ± 1.5%

Structure (SMILES): Cc1cnc(N=C2NC(=O)C(=Cc3ccccc3O)S2)s1 [Compound 2]
inhibition in vivo at 150 µmol/kg [1]: 43.1 ± 1.9%

Structure (SMILES): Cc1cnc(N=C2NC(=O)C(=Cc3ccc(O)cc3)S2)s1 [Compound 3]
inhibition in vivo at 150 µmol/kg [1]: 31.4% | Oedema Inhibition (%) [1]: 31.4 ± 2.3 %

Structure (SMILES): COc1ccc(C=C2SC(=Nc3ncc(C)s3)NC2=O)cc1 [Compound 4]
inhibition in vivo at 150 µmol/kg [1]: 48.3 ± 1.8%

Structure (SMILES): COc1ccc(OC)c(C=C2SC(=Nc3ncc(C)s3)NC2=O)c1 [Compound 5]
inhibition in vivo at 150 µmol/kg [1]: 44.9 ± 1.7%

Structure (SMILES): Cc1cnc(N=C2NC(=O)C(=Cc3ccccc3[N+](=O)[O-])S2)s1 [Compound 6]
inhibition in vivo at 150 µmol/kg [1]: 48.7 ± 1.8%

Structure (SMILES): Cc1cnc(N=C2NC(=O)C(=Cc3cccc([N+](=O)[O-])c3)S2)s1 [Compound 7]
inhibition in vivo at 150 µmol/kg [1]: 54.5 ± 1.4%

IC50 [2]: 14.4 ± 0.7 µM | inhibition at 200 µM [2]: 100% | inhibition at 100 µM [3]: 7.88 ± 2.1% | inhibition at 200 µM [4]: 0%
Structure (SMILES): Cc1cnc(N=C2NC(=O)C(=Cc3ccc([N+](=O)[O-])cc3)S2)s1 [Compound 8]
inhibition in vivo at 150 µmol/kg [1]: 55.4% | Oedema Inhibition (%) [1]: 55.4 ± 1.5 %

Structure (SMILES): Cc1cnc(N=C2NC(=O)C(=Cc3cccc(F)c3)S2)s1 [Compound 9]
inhibition in vivo at 150 µmol/kg [1]: 34.8 ± 2.1%

Structure (SMILES): Cc1cnc(N=C2NC(=O)C(=Cc3ccc(F)cc3)S2)s1 [Compound 10]
inhibition in vivo at 150 µmol/kg [1]: 47.8 ± 1.6%

Structure (SMILES): Cc1cnc(N=C2NC(=O)C(=Cc3ccccc3Cl)S2)s1 [Compound 11]
inhibition in vivo at 150 µmol/kg [1]: 43 ± 1.7%

Structure (SMILES): Cc1cnc(N=C2NC(=O)C(=Cc3ccc(Cl)cc3)S2)s1 [Compound 12]
inhibition in vivo at 150 µmol/kg [1]: 55.6% | Oedema Inhibition (%) [1]: 55.6 ± 1.5 %

IC50 [2]: 1.1 ± 0.3 µM | inhibition at 200 µM [2]: 100% | inhibition at 100 µM [3]: 37.2 ± 1.8% | inhibition at 200 µM [4]: 0%
Structure (SMILES): Cc1cnc(N=C2NC(=O)C(=Cc3cccc(Cl)c3Cl)S2)s1 [Compound 13]
inhibition in vivo at 150 µmol/kg [1]: 57.8% | Oedema Inhibition (%) [1]: 57.8 ± 1.3 %

Structure (SMILES): Cc1cnc(N=C2NC(=O)C(=Cc3ccc(Cl)cc3Cl)S2)s1 [Compound 14]
inhibition in vivo at 150 µmol/kg [1]: 35.2 ± 2.1%

Structure (SMILES): Cc1cnc(N=C2NC(=O)C(=Cc3c(Cl)cccc3Cl)S2)s1 [Compound 15]
inhibition in vivo at 150 µmol/kg [1]: 39.4 ± 2.3%

IC50 [2]: 1.08 ± 0.3 µM | inhibition at 200 µM [2]: 100% | inhibition at 100 µM [3]: 46.7 ± 1.5% | inhibition at 200 µM [4]: 0%
Structure (SMILES): Cc1cnc(N=C2NC(=O)C(=Cc3cccc(Br)c3)S2)s1 [Compound 16]
inhibition in vivo at 150 µmol/kg [1]: 57.6% | Oedema Inhibition (%) [1]: 57.6 ± 1.4 %

Structure (SMILES): Cc1cnc(N=C2NC(=O)C(=Cc3ccc(Br)cc3)S2)s1 [Compound 17]
inhibition in vivo at 150 µmol/kg [1]: 41.4 ± 1.9%

Structure (SMILES): COc1ccc2cc([C@H](C)C(=O)O)ccc2c1 [Naproxen, reference compound]
inhibition at 200 µM [4]: 17 ± 2.3%
